According to patent US11535643B2, “Macrolides with modified desosamine sugars and uses thereof” (President and Fellows of Harvard College, priority 2015, dated 2022):

Experiments:
Type in all cases: cell-based
A. baumannii = assay: Broth dilution MIC determination (CLSI) against A. baumannii strains; conditions: for MIC A. baumannii ATCC19606: ATCC19606, Strain No. MP-15
Excerpt: (§1) Minimum inhibitory concentrations (MICs) for macrolides described herein have been determined for unique strains of S. aureus, S. pneumoniae, S. pyogenes, E. faecalis, E. coli, A. baumannii, K. pneumoniae, P. aeruginosa, and H. influenzae, including several multidrug-resistant strains, with a special focus on macrolide resistant mechanisms. Azithromycin and solithromycin were included as control compounds. CLSI standard procedures for broth dilution MIC determination were used. Data for exemplary compounds described herein is shown in Tables M1-M7 and in Tables N1-N4.

S. pneumoniae = assay: Broth dilution MIC determination (CLSI) against S. pneumoniae strains; conditions: for MIC S. pneumoniae ATCC49619: ATCC49619, Strain No. MP-21
Excerpt: as §1

E. faecalis = assay: Broth dilution MIC determination (CLSI) against E. faecalis strains; conditions: for MIC E. faecalis ATCC29212: ATCC29212, Strain No. MP-24; for MIC E. faecalis van resistant: Strain No. UNT-039
Excerpt: as §1

S. pyogenes = assay: Broth dilution MIC determination (CLSI) against S. pyogenes strains; conditions: for MIC S. pyogenes ATCC19615: ATCC19615, Strain No. MP-19; for MIC S. pyogenes mac resistant: Strain No. MP-625 UNT-014
Excerpt: as §1

K. pneumoniae = assay: Broth dilution MIC determination (CLSI) against K. pneumoniae strains; conditions: for MIC K. pneumoniae ATCC10031: ATCC10031, Strain No. MP-14
Excerpt: as §1, with “used.” for “used. Data for exemplary compounds described herein is shown in Tables M1-M7 and in Tables N1-N4.”

S. aureus = assay: Broth dilution MIC determination (CLSI) against S. aureus strains; conditions: for MIC S. aureus ATCC29213: ATCC29213, Strain No. MP-12; for MIC S. aureus ATCCBAA-977: ATCCBAA-977, Strain No. MP-17; for MIC S. aureus (MRSA) GISA USA600: GISA USA600, Strain No. MP-619 UNT-120; for MIC S. aureus (MRSA) ST-228 cErm: Strain No. MP-513; for MIC S. aureus (MRSA) USA100: USA100, Strain No. MP-618 UNT-096; for MIC S. aureus (MRSA) USA300: USA300, Strain No. MP-549; for MIC S. aureus (MRSA) ermA phenotype: Strain No. MP-620 UNT-146
Excerpt: as §1

P. aeruginosa = assay: Broth dilution MIC determination (CLSI) against P. aeruginosa strains; conditions: for MIC P. aeruginosa ATCC27853: ATCC27853, Strain No. MP-3; for MIC P. aeruginosa PAO1: PAO1, Strain No. MP-7; for MIC P. aeruginosa PAO1:mex: Strain No. MP-8
Excerpt: as §1

E. coli = assay: Broth dilution MIC determination (CLSI) against E. coli strains; conditions: for MIC E. coli ATCC25922: ATCC25922, Strain No. MP-4; for MIC E. coli ATCC25922:tolC: Strain No. MP-9; for MIC E. coli clinical: Strain No. MP541; for MIC E. coli clinical-cErm: Strain No. MP532
Excerpt: as §1

CCC1OC(=O)C(C)C(=O)C(C)C(OC2OC(C)CC(n3cccc3)C2O)C(C)(OC)CC(C)CNC(C)C2N(CCCCn3cc(-c4cccc(N)c4)nn3)C(=O)OC12C (stereo not drawn) [FSM-120362]
4 µg/mL: MIC S. pneumoniae mefA (S. pneumoniae; Strain No. MP-626 UNT-038)
2 µg/mL: MIC S. pyogenes ATCC19615 (S. pyogenes)
8 µg/mL: MIC S. pneumoniae ATCC49619 (S. pneumoniae) | MIC S. pneumoniae mefA (S. pneumoniae; Strain No. MP-627 UNT-039)
16 µg/mL: MIC S. pyogenes mac resistant (S. pyogenes)
64 µg/mL: MIC E. faecalis ATCC29212 (E. faecalis)
>64 µg/mL: MIC A. baumannii ATCC19606 (A. baumannii) | MIC K. pneumoniae ATCC10031 (K. pneumoniae) | MIC S. aureus ATCC29213 (S. aureus) | MIC S. aureus ATCCBAA-977 (S. aureus) | MIC S. aureus (MRSA) ST-228 cErm (S. aureus) | MIC S. aureus (MRSA) USA100 (S. aureus) | MIC S. aureus (MRSA) USA300 (S. aureus) | MIC P. aeruginosa PAO1:mex (P. aeruginosa) | MIC E. coli ATCC25922:tolC (E. coli)
>32 µg/mL: MIC A. baumannii clinical (A. baumannii; Strain No. MP576) | MIC A. baumannii clinical (A. baumannii; Strain No. MP577) | MIC E. faecalis van resistant (E. faecalis) | MIC K. pneumoniae clinical (K. pneumoniae; Strain No. MP546) | MIC K. pneumoniae clinical (K. pneumoniae; Strain No. MP548) | MIC S. aureus (MRSA) GISA USA600 (S. aureus) | MIC S. aureus (MRSA) ermA phenotype (S. aureus) | MIC P. aeruginosa ATCC27853 (P. aeruginosa) | MIC P. aeruginosa PAO1 (P. aeruginosa) | MIC E. coli ATCC25922 (E. coli) | MIC E. coli clinical (E. coli) | MIC E. coli clinical-cErm (E. coli)

CCC1OC(=O)C(C)C(=O)C(C)C(OC2OC(C)CC(N3CCOCC3)C2O)C(C)(OC)CC(C)CNC(C)C2N(CCCCn3cc(-c4cccc(N)c4)nn3)C(=O)OC12C (stereo not drawn) [FSM-120367]
32 µg/mL: MIC S. pneumoniae ATCC49619 (S. pneumoniae)
>64 µg/mL: MIC A. baumannii ATCC19606 (A. baumannii) | MIC A. baumannii clinical (A. baumannii; Strain No. MP576) | MIC A. baumannii clinical (A. baumannii; Strain No. MP577) | MIC E. faecalis van resistant (E. faecalis) | MIC K. pneumoniae ATCC10031 (K. pneumoniae) | MIC K. pneumoniae clinical (K. pneumoniae; Strain No. MP546) | MIC K. pneumoniae clinical (K. pneumoniae; Strain No. MP548) | MIC S. aureus ATCC29213 (S. aureus) | MIC S. aureus ATCCBAA-977 (S. aureus) | MIC S. aureus (MRSA) GISA USA600 (S. aureus) | MIC S. aureus (MRSA) ST-228 cErm (S. aureus) | MIC S. aureus (MRSA) USA100 (S. aureus) | MIC S. aureus (MRSA) USA300 (S. aureus) | MIC S. aureus (MRSA) ermA phenotype (S. aureus) | MIC P. aeruginosa ATCC27853 (P. aeruginosa) | MIC P. aeruginosa PAO1 (P. aeruginosa) | MIC P. aeruginosa PAO1:mex (P. aeruginosa) | MIC E. coli ATCC25922 (E. coli) | MIC E. coli ATCC25922:tolC (E. coli) | MIC E. coli clinical (E. coli) | MIC E. coli clinical-cErm (E. coli)
16 µg/mL: MIC S. pneumoniae mefA (S. pneumoniae; Strain No. MP-626 UNT-038) | MIC S. pneumoniae mefA (S. pneumoniae; Strain No. MP-627 UNT-039)
64 µg/mL: MIC E. faecalis ATCC29212 (E. faecalis) | MIC S. pyogenes mac resistant (S. pyogenes)
8 µg/mL: MIC S. pyogenes ATCC19615 (S. pyogenes)

CCC1OC(=O)C(C)C(=O)C(C)C(OC2OC(C)CC(NCC(=O)O)C2O)C(C)(OC)CC(C)CNC(C)C2N(CCCCn3cc(-c4cccc(N)c4)nn3)C(=O)OC12C (stereo not drawn) [FSM-120368]
>64 µg/mL: MIC A. baumannii ATCC19606 (A. baumannii) | MIC A. baumannii clinical (A. baumannii; Strain No. MP576) | MIC A. baumannii clinical (A. baumannii; Strain No. MP577) | MIC E. faecalis ATCC29212 (E. faecalis) | MIC E. faecalis van resistant (E. faecalis) | MIC K. pneumoniae ATCC10031 (K. pneumoniae) | MIC K. pneumoniae clinical (K. pneumoniae; Strain No. MP546) | MIC K. pneumoniae clinical (K. pneumoniae; Strain No. MP548) | MIC S. aureus ATCC29213 (S. aureus) | MIC S. aureus ATCCBAA-977 (S. aureus) | MIC S. aureus (MRSA) GISA USA600 (S. aureus) | MIC S. aureus (MRSA) ST-228 cErm (S. aureus) | MIC S. aureus (MRSA) USA100 (S. aureus) | MIC S. aureus (MRSA) USA300 (S. aureus) | MIC S. aureus (MRSA) ermA phenotype (S. aureus) | MIC P. aeruginosa ATCC27853 (P. aeruginosa) | MIC P. aeruginosa PAO1 (P. aeruginosa) | MIC P. aeruginosa PAO1:mex (P. aeruginosa) | MIC E. coli ATCC25922 (E. coli) | MIC E. coli ATCC25922:tolC (E. coli) | MIC E. coli clinical (E. coli) | MIC E. coli clinical-cErm (E. coli)
16 µg/mL: MIC S. pneumoniae ATCC49619 (S. pneumoniae) | MIC S. pneumoniae mefA (S. pneumoniae; Strain No. MP-626 UNT-038)
32 µg/mL: MIC S. pyogenes mac resistant (S. pyogenes)
8 µg/mL: MIC S. pneumoniae mefA (S. pneumoniae; Strain No. MP-627 UNT-039) | MIC S. pyogenes ATCC19615 (S. pyogenes)
